Reference: US20050044581A1, “Animals and cells containing a mutated alpha2/omega1 gene” (priority 2003, published 2005)

Legend:
[1] = test system: R217A mutant lines and background strain mice; experiment: Maximal electroshock procedure (MES); format: in vivo, mouse; conditions: all background strains, mutant, heterozygous mutant and wildtype (all lines); FIG. 9
Procedure: WT mice were tested at 0.1 mA, HET mice were tested at 0.4 mA and KI mice were tested at 0.7 InA. Each experiment included a no-shock vehicle control group for direct comparison to the concurrent vehicle punished-responding group to determine percent suppression of drinking. […] Sedation was noted by the observer as previously described. […] Electroshock in mice was delivered using corneal electrodes with varied electroshock intensity. Current was delivered (60 Hz sinusoidal current, 11 to 17 mA baseline to peak vs. 50 mA for 0.2 s) using a constant-current stimulator (Wahlquist Instruments, Salt Lake City, Utah). The intensities of current necessary to produce tonic extensor seizures for each mouse strain and mutant lines in all of the mice were determined. These currents were then used for further testing of mice with pregabalin. All dose-response testing was conducted at the previously determined time of peak drug effect. Groups of 10 mice each were give various intraperitoneal doses of pregabalin dissolved in 0.9% saline, diazepam (veh) or phenytoin and given in a volume of 10 ml/kg of body weight. […] At least four groups of mice and each animal was employed once. The animals, pretreated with different doses of the tested drugs, were challenged with one electroshock at previously determined times of peak drug effect (pregabalin: 120 min; diazepam: 60 min; phenytoin; 60 min)

[2] = test system: α2/δ1 in mouse brain membranes; experiment: 3H gabapentin binding to whole mouse brain membranes, R217A mutant vs wildtype; conditions: R217A mutant mouse in comparison to wildtype mice; tracer 3H gabapentin; FIG. 3
Procedure: Membranes were prepared from whole mouse brains. […] Total binding was determined in the absence of competitor. Non-specific binding was determined in the presence of 10 μM unlabeled pregabalin.

[3] = test system: WT, HET and KI R217A mice and parent strains; experiment: Vogel water-lick conflict; format: in vivo, mouse; conditions: for minimally effective dose (MED), Vogel: IP (doses tested in mg/kg)
Procedure: Two strains used to generate the mutant mice, C57BU6J (Jackson Laboratories), and 129S6/SvEV (Taconic Farms), were also evaluated. Albino or C57BL/6J-Tyr were also included in the experiments for comparison purposes. Male C57BL/6J (Jackson Laboratories), and 129S6/SvEV (Taconic Farms) mice were received at 8 weeks old in quantities sufficient for each study to be completed in one experiment. Parent strains were housed one week prior to testing. All animals were housed in a temperature and humidity controlled room under a 12L: 12D schedule (lights on @06:00 h). All mice were housed in isolators (3-5/cage) with the exception of C57BU6J mice that were housed on wire racks (12/cage).
On the side of each chamber (1.5 in. above the floor) a module optical lickometer was mounted. The lickometer was used to measure licking from a drink tube attached to a water bottle mounted on the exterior of the chamber. A photo beam was piped via glass rods across a gap at the end of the drink tube. The subject's tongue breaks the beam when it drinks from the tube and each lick was automatically recorded. […] The reduced chamber space limited the animal's activity and directed behavior towards the drink tube during a 10-minute session. The front and back of the test chamber was made of clear Plexiglas. The front door was covered to reduce distractions from inside the test room. The back of the test chamber faced a wall, away from the flow of traffic in the testing room, and remained uncovered to provide the opportunity for observations. Shock was delivered between the grid floor and the drink tube using a (Coulbourn) programmable universal shocker for a duration of one second, but terminated immediately when contact between the animal and drink tube was broken.
PROCEDURE: On day one, after 24 hours of water deprivation, experimental subjects were placed in the test chambers and allowed to drink unpunished for a 10-minute training session. Mice were required to complete a 100-150 lick criteria during the training session. Subjects that completed the training criteria prior to the end of the 10-minute session were removed so that drinking was restricted in all subjects to 25% of their total daily intake. […] Immediately after the day one session mice were returned to their home cages and deprived of water and food for an additional 24 hours. On test day two, mice were dosed by intraperitoneal (IP) injection with vehicle or test compound. After a 60 or 120-minute absorption period mice were placed into the test chambers for a 10-minute test session. During the test, shock was delivered on a fixed ratio (FR) 10 schedule. Therefore, after every 10th lick the subject received a mild shock. […] A low number of shock episodes accepted reflects anxiety-related behavior. Standard anxiolytic drugs produce effects that allow mice to overcome the behavioral inhibition and drink despite the shock. […] All data were analyzed using a one-way ANOVA/Dunn's Method.
DRUGS: Pregabalin was dissolved in physiological saline for all experiments. The positive control diazepam was suspended in 2% cremophor in physiological saline. All drugs were dosed in a volume of 10 mL/kg.
C57BL/6J mice were tested at 0.4 mA, C57BL/6J-Tyr mice were tested at 0.1 mA and 129S6/SvEV mice were tested at 0.6 mA. Each dose-response study included a no-shock vehicle control group directly compared to the concurrent vehicle punished-responding group to evaluate the suppression of drinking. […] For all experiments, sedation was noted when both symptoms of ataxia (unsteady gait) and a reduced response to handling were observed after dosing and described as mild, moderate or severe.
WT mice were tested at 0.1 mA, HET mice were tested at 0.4 mA and KI mice were tested at 0.7 InA. Each experiment included a no-shock vehicle control group for direct comparison to the concurrent vehicle punished-responding group to determine percent suppression of drinking.

Row | Structure (SMILES) | responsiveness to anticonvulsant effects [1] | gabapentin binding to brain membranes [2] | minimally effective dose (MED), Vogel ([3]; 129S6/SvEv, shock 0.6 mA) | minimally effective dose (MED), Vogel ([3]; C57BL/6J, shock 0.4 mA) | minimally effective dose (MED), Vogel ([3]; C57 albino, shock 0.1 mA) | minimally effective dose (MED), Vogel ([3]; Hets, shock 0.4 mA) | minimally effective dose (MED), Vogel ([3]; Knockins, shock 0.7 mA) | anxiolytic-like effect / punished licking, Vogel ([3]; R217A knockins (homozygous)) | minimally effective dose (MED), Vogel ([3]; Wild Type, shock 0.1 mA)
1 | O=C1NC(=O)C(c2ccccc2)(c2ccccc2)N1 [phenytoin] | fully responsive |  |  |  |  |  |  |  | 
2 | NCC1(CC(=O)O)CCCCC1 [gabapentin, 1-(aminomethyl)cyclohexaneacetic acid] |  | reduced, or greatly abolished |  |  |  |  |  |  | 
3 | CN1C(=O)CN=C(c2ccccc2)c2cc(Cl)ccc21 [diazepam] | fully responsive |  | inactive | 3.2 | 3.2 | 3.2 | inactive | Diazepam (+ control) failed to produce an anxiolytic-like effect in R217A knockins. Data suggests 129S6-parent strain's genotype may be responsible for pharmacological profile of diazepam | 3.2
